How the values were obtained:
[1] = test system: Nalm-6 cells; assay: Inhibition of proliferation in leukemia cells (Nalm-6); type: cell-based; conditions: Nalm-6, 24 h, concentration-dependent
Procedure: In leukemia cells (Nalm-6), cell proliferation is inhibited. After 24 h, 1×10^5 cells will have proliferated to almost threefold (2.97×10^5 cells), while cell proliferation is inhibited up to 100% in a concentration-dependent way by treatment with the steroid WIL 071, see FIG. 1. The experiments were performed in triplicate. The error bars show the standard deviations of the measured values of three independent experiments.

[2] = test system: BiBo cells; assay: Apoptosis induction in polycytostatics-resistant BiBo cells vs BJAB; type: cell-based; conditions: vincristine-resistant BJAB, Bcl-2 overexpression
Procedure: BiBo cells are lymphoma cells (BJAB cells) that have been made resistent against vincristine, and have a Bcl-2 overexpression as a resistence mechanism. They have co-resistences for the following cytostatics: • vincristine, vinblastine, vindesine, vinorelbin, taxol • cytarabin • daunorubicin.
The experiments were performed in triplicate. The error bars show the standard deviations of the measured values of three independent experiments. The steroid WIL 071 overcomes steroid resistence in lymphoma cells (BiBo cells).

[3] = test system: NaKu cells; assay: Apoptosis induction in steroid- and polycytostatics-resistant NaKu cells vs Nalm-6; type: cell-based; conditions: steroid- and polycytostatics-resistant leukemia cells (ALL)
Procedure: (§1) The experiments were performed in triplicate. The error bars show the standard deviations of the measured values of three independent experiments.
The steroid WIL 071 overcomes steroid resistence in leukemia cells (NaKu cells). Further, the steroid-resistent leukemia cells (NaKu cells) have co-resistencies for the following cytostatics: • prednisolone, methylprednisolone, dexamethasone, • doxorubicin, daunorubicin, idarubicin, epirubicin • cytarabine, cladribine • etoposide • cyclophosphamide, ifosfamide • vindesine • cisplatin, carboplatin, oxaliplatin

[4] = test system: pancreatic carcinoma cells (DAN-G); assay: Apoptosis in pancreatic carcinoma cells; type: cell-based; conditions: DAN-G cell line
Procedure: In contrast to conventional glucocorticoids, the steroid WIL 071 can induce apoptosis also in pancreatic carcinoma cells.
The DNA fragmentation was measured by flow cytometry, see FIG. 11. The experiments were performed in triplicate. The error bars show the standard deviations of the measured values of three independent experiments.
The standard treatment for pancreatic carcinoma includes 5-fluorouracil.

[5] = test system: BJAB cells; assay: Selectivity: apoptosis (DNA fragmentation, flow cytometry) in lymphoma cells; type: cell-based
Procedure: (§2) WIL 071 acts selectively in malignant cells that are proliferating.
(§3) The DNA fragmentation was measured by flow cytometry, see FIG. 7. The experiments were performed in triplicate. The error bars show the standard deviations of the measured values of three independent experiments.

[6] = test system: human primary leukocytes; assay: Selectivity: apoptosis (DNA fragmentation, flow cytometry) in leukocytes; type: cell-based
Procedure: as §2, §3

[7] = test system: 7-CCA cells; assay: Apoptosis induction in polycytostatics-resistant 7-CCA cells vs BJAB; type: cell-based; conditions: doxorubicin-resistant BJAB, caspase-3 underexpression
Procedure: 7-CCA cells are lymphoma cells (BJAB cells) that have been made resistent against doxorubin, and have a caspase-3 underexpression as a resistence mechanism. They have co-resistences for the following cytostatics: • vincristine, vinblastine, vindesine, vinorelbin, taxol • cytarabin, fudarabin, cladribin, clofarabin, • daunorubicin, doxorubicin, idarubicin, epirubicin • cisplatin, oxaliplatin
The experiments were performed in triplicate. The error bars show the standard deviations of the measured values of three independent experiments. The steroid WIL 071 overcomes steroid resistence in lymphoma cells (7-CCA cells).

[8] = Tolerability (dose escalation, MTD) in an animal model; type: in vivo, NOG-F (Taconic) mice
Procedure: An incremental increase of dose of the three substances Wil-071, Wil-232 and Wil-369 was performed in 8-week-old female NOG-F (Taconic) mice. Different mice were administered one of up to seven different doses of the test substances. The start was on day 1 with the lowest dose of 10 mg/kg. […] All in all, if possible, the doses 10, 20, 40, 80, 100, 150 and 200 mg/kg are tested. Subsequently, the maximum tolerable dose (MTD) was administered to three more animals, and these were subsequently observed for one week, in order to be able to observe any developing symptoms. For this purpose, the animals were observed and weighed on a daily basis. The body weight is considered an indicator of the general condition of the animals.
For the MTD experiment, Wil-071 was dissolved in 100% DMSO, and then diluted 1:50 with a 20% (w/v) 2-hydroxypropyl-beta-cyclodextrin (HPβCD) solution. Thus, 200 μL of injection solution (per mouse) of a 40 mg/kg dose could be achieved. For 80, 100 and 150 mg/kg, the DMSO proportion was increased to up to 4% (v/v) in the final injection solution. In addition, ultrasound had to be employed, and the sample had to be heated at 60° C. for up to 45 min. 200 mg/kg was reached only as a milky suspension. […] Therefore, Wil-071 can be considered non-toxic up to 150 mg/kg. The final MTD could not be determined because of the insufficient solubility.
For 100 mg/kg of Wil-232, the end concentration of DMSO in the injection solution was 2%. In order to dissolve Wil-232, the sample also had to be treated with ultrasound, and heated at 60° C. The dose of 150 mg/kg was achieved only with 4% DMSO, and 200 mg/kg was achieved only as a suspension. […] Otherwise, there were no signs of toxicity, so that the substance can be considered tolerable up to 150 mg/kg. In this case too, a final MTD cannot be determined because of insufficient solubility.
Using a DMSO stock and 20% HPβCD solution, a maximum of only 5 mg/ml was dissolved. A further increase could not be achieved even with more DMSO or HPβCD. Thus, above the dose of 40 mg/kg, a higher injection volume was injected in order to reach the corresponding dose. […] For the tolerability under the current solubility conditions, a value of […] is to be applied. This dose was injected into the 8 animals for pharmacokinetics. In this case too, a final MTD cannot be determined because of insufficient solubility.

[9] = test system: primary glioblastoma cells of a patient; assay: Apoptosis in primary human glioblastoma cells; type: cell-based; conditions: grade 4
Procedure: In contrast to conventional glucocorticoids, the steroid WIL 071 can induce apoptosis also in primary human brain tumor cells.
The DNA fragmentation was measured by flow cytometry, see FIG. 10. The experiments were performed in triplicate. The error bars show the standard deviations of the measured values of three independent experiments.

[10] = test system: Nalm-6 cells; assay: Synergistic apoptosis induction with cytarabin or vincristine; type: cell-based
Procedure: as §1

## CC(C)CCC[C@@H](C)[C@H]1CC[C@H]2[C@@H]3[C@H]4OC[C@@]5(CC[C@H](O)C[C@]5(O)C4=O)[C@H]3CC[C@]12C [WIL-071, 3β,5α-dihydroxy-7β,19-epoxy-cholestan-6-one]
[1]
  inhibition of cell proliferation: up to 100%
[2]
  apoptosis induction in resistant BiBo cells compared with BJAB: induces as much apoptosis as in the non-resistent lymphoma cells
[3]
  apoptosis induction in resistant NaKu cells compared with Nalm-6: induces as much apoptosis as in the non-resistent leukemia cells (Nalm-6)
[4]
  apoptosis induction (DNA fragmentation): significantly induces apoptosis
[5]
  apoptosis induction (DNA fragmentation): apoptosis is induced in a concentration-dependent way
[6]
  apoptosis induction (DNA fragmentation): apoptosis is not induced
[7]
  apoptosis induction in resistant 7-CCA cells compared with BJAB: induces as much apoptosis as in the non-resistent lymphoma cells
[8]; 200 mg/kg as suspension, signs of pulmonary embolism in section
  outcome of injection of the 200 mg/kg suspension: immediate death of the animal
[8]; injection into caudal vein, mice, final MTD not determinable because of solubility
  dose up to which non-toxic / tolerable: up to 150 mg/kg
[9]
  apoptosis induction (DNA fragmentation): significantly induces apoptosis
[10]; Nalm-6, parallel treatment with cytarabin
  synergistic effect on apoptosis with cytarabin: synergistic effects
[10]; Nalm-6, parallel treatment with vincristine
  synergistic effect on apoptosis with vincristine: synergistic effects
